Laboratory results taken from patent US6255502A, “Pharmaceutical composition containing acid addition salt of basic drug” (Farmarc Nederland B.V., priority 1996, dated 2001).
Converted amounts (≈) assume the structure as drawn.

Legend:
[1] = Aqueous solubility (stated in the Examples); type: physicochemical; settings: aqueous solution
[2] = Partition coefficient and apparent partition coefficient, n-octanol / phosphate buffer pH 7.4 at 25° C.; type: physicochemical; settings: n-octanol / phosphate buffer pH 7.4, 25° C.; for Partition Coefficient: P = Co/Cw; for Apparent Partition Coefficient: Papp=P/(1+10^pKa-pH)
Experimental: Melting points (peak onset temperature) were determined by Differential Scanning Calorimetry using a Perkin Elmer DSC 7. The saturation solubilities were determined by shaking an excess of the compound in phosphate buffer pH 7.4 at 25° C. […] Pharmaceutical Press p70]:
where P=Co /Cw and where Co is the concentration of the drug in n-octanol and Cw is the concentration of the drug in phosphate buffer pH 7.4 at 25° C. Drug concentrations were determined by HPLC.

[3] = Thermal decomposition seen in differential scanning calorimetry; type: physicochemical; settings: DSC from 50 to 200° C.
Experimental: Salbutamol base (1.2007 g; 5.02 mmol) was dissolved in ethanol (100 mL) with vigorous stirring. Glycodeoxycholic acid (2.4601 g; water content: 4.25% w/w; 5.25 mmol~5% molar excess) was added and dissolved with stirring. A clear, colourless solution was obtained. The ethanol was removed by vacuum rotary-evaporation to give a viscous, yellow residue. Ethyl acetate (200 mL) was added to the residue and the mixture heated in a water bath with constant agitation. As the yellow residue dissolved, a white precipitate formed. Agitation was continued until the yellow residue disappeared. The ethyl acetate solution was cooled in an ice bath. […] Analysis by differential scanning calorimetry from 50 to 200° C. gave no significant thermal event. Slow decomposition was evident after 110° C.

[4] = providing an appropriate pH gradient existed; cited from earlier work
[5] = dogs, sustained-release oral formulation study; cited from earlier work
[6] = cited from earlier work
[7] = by forming a complex with a fatty acid; cited from earlier work
[8] = Deliquescence of precipitate on standing; type: physicochemical

With CC(C)(C)NCC(O)c1ccc(O)c(CO)c1 (stereo not drawn) [Salbutamol glycodeoxycholate, salbutamol glycodeoxycholate] the Aqueous solubility [1] was “greater than 8.35 mg/mL”, the “Partition Coefficient” value [2] was 0,61 and the “Apparent Partition Coefficient” value [2] was 0,007584. The “Slow decomposition evident after” value [3] was greater than 110 °C.
For CCCCCCCCCCCC(=O)O [lauric acid], the “Transport of cations across an iso-Pr myristate membrane” value [4] is listed as “facilitated”.
For CC(C)NCC(O)COc1cccc2ccccc12 (stereo not drawn) [propranolol laurate], the bioavailability [5] is given as “An increase in bioavailability was observed”.
In the case of CCCCCCCC/C=C\CCCCCCCC(=O)O [oleic acid], the “Transport of cations across an iso-Pr myristate membrane” value [4] is listed as “facilitated”.
In the case of CCCCCCCC(=O)[O-].[Na+] [sodium caprylate], the “effect on rat nasal absorption of insulin” value (shortened to “effect”) [6] is given as “promoting effect”.
In the case of CCCCCCCCCC(=O)[O-].[Na+] [sodium caprate], the “effect” value [6] is listed as “promoting effect”.
For CC(C)NCC(O)COc1cccc2ccccc12 (stereo not drawn) [propranolol], the “Penetration across the stratum corneum” value [7] is given as “a significant proportion of propranolol will penetrate across the stratum corneum”.
In the case of CC(C)(C)NCC(O)c1ccc(O)c(CO)c1 (stereo not drawn) [Salbutamol base], the “Partition Coefficient” value [2] is reported as 0,42 and the “Apparent Partition Coefficient” value [2] is reported as 0.005222.
For CCCCCCCCCCCC(=O)[O-].[Na+] [sodium laurate], the “effect” value [6] is listed as “promoting effect”.
In the case of CC(C)(C)NCC(O)c1ccc(O)c(CO)c1 (stereo not drawn) [Salbutamol caprate], the solubility ([1]; water) is reported as 4760 µg/mL (≈ 19.9 mM), the “Partition Coefficient” value [2] is reported as 0,54 and the “Apparent Partition Coefficient” value [2] is reported as 0,006714.
In the case of COc1ccc2c3c1O[C@H]1[C@@H](O)C=C[C@H]4[C@@H](C2)N(C)CC[C@@]341 [Codeine caprate, codeine caprate], the Deliquescence [8] is reported as “very deliquescent”.
With CNS(=O)(=O)Cc1ccc2[nH]cc(CCN(C)C)c2c1 [Sumatriptan caprate, sumatriptan caprate] the “Partition Coefficient” value [2] was 1,54 and the “Apparent Partition Coefficient” value [2] was 0.009015.
For CNS(=O)(=O)Cc1ccc2[nH]cc(CCN(C)C)c2c1 [Sumatriptan base], the “Partition Coefficient” value [2] was 0,69 and the “Apparent Partition Coefficient” value [2] was 0,004039.
